The values that follow come from patent US12414960B2, “Analogues of oleuropein and oleacein and uses thereof” (Attica Sciences Ltd., priority 2020, dated 2025).

Data set [1] concerns MCF-7 ER+ breast cancer cells. The data set is described as follows: XTT cell growth assay, MCF-7 ER+. The conditions noted are these: Homo sapiens, MCF7, 24 h, NS = not statistically significant, read-out: Effectiveness to suppress MCF7 cell growth (cell growth inhibition). Type of data set: cell-based, human. An excerpt:
(§1) The XTT assay is used to measure cellular metabolic activity as an indicator of cell viability, proliferation and cytotoxicity. This non-radioactive, colorimetric assay system was first described by Scudiero, et al. in 1988 (Paull, Kenneth D. et al., J Heterocycl Chem, 1988, 25: 911-914; Scudiero, Dominic A. et al., Cancer Res, 1988, 48: 4827-4833) and improved in subsequent years by several other investigators (Weislow, Owen S. et al., J Natl Cancer Inst, 1989, 81(8): 577-586; Roehm, N. W. et al., J Immunol Methods, 1991, 142: 257-265).
(§2) The XTT assay is based on the reduction of a yellow tetrazolium salt (sodium 3′-[1-(phenylaminocarbonyl)-3,4-tetrazolium]-bis (4-methoxy6-nitro) benzene sulfonic acid hydrate or XTT) to an orange formazan dye by metabolically active cells (FIG. 8). The formazan dye formed is soluble in aqueous solutions and is directly quantified using a scanning multiwell spectrophotometer (ELISA reader). An increase in number of living cells results in an increase in the overall activity of mitochondrial dehydrogenases in the sample. This increase directly correlates to the amount of orange formazan formed, as monitored by the absorbance. Reduced number of living cells leads to reduced metabolism of quaternary salt and therefore reduced absorption.
(§3) Cell viability was assessed using the XTT assay kit (Roche, Mannheim, Germany) as described previously (Kouka, Paraskevi et al., Oxid Med Cell Longev. 2019, Article ID 1870965). Briefly, cancer cells per well were cultured in a 96-well plate in Dulbecco's modified Eagle's medium (DMEM). Following a 24 h incubation, 5, 10 and 50 μM of the tested GS compound was diluted in a serum-free DMEM and administered for 24 h. Subsequently, 50 μL of the XTT reagent (50:1) was added to each well. After 4 h of incubation, the absorbance was monitored at 450 nm and also at 630 nm as a reference wavelength in a BioTek ELx800 microplate reader (BioTek Instruments Inc., Winooski, VT, USA). As a negative control, samples containing serum-free DMEM only were used.
MCF-7 ER+ is a human breast cancer cell line isolated in 1970 from a person. Prior to MCF-7, it was not possible for cancer researchers to obtain a mammary cell line that was capable of living longer than a few months.
(§4) The effects of exemplary compounds on cancer cell lines and one non-tumorigenic cell line (control) were investigated using a high throughput screening assay. More specifically, the effects of the GS compounds on cell growth was evaluated by the XTT assay for cell lines HepG2, HeLa, MCF7 ER+, MDA-MB-231, and MKN-45, and by the Cell Glo luminescence assay for cell lines MIA PaCa-2, HCT-116, MCF-10A, and PANC-1.
A general note: Formazan colour is commonly taken as a measure of viable cells.

Data set [2] deals with HCT-116 colon cancer cells. The data set is described as follows: Cell Glo luminescence cell growth assay, HCT-116. In kind it is cell-based, human. The conditions noted are these: NS = not statistically significant; for inhibition at 1 µM: Homo sapiens, HCT-116, 24 h, read-out: Effectiveness to suppress HCT-116 cell growth (cell growth inhibition).
From the text: (§5) The CellTiter-Glo® Luminescent Cell Viability Assay (Promega Corporation; Madison, WI) is a homogeneous method of determining the number of viable cells in culture based on quantitation of the ATP present, an indicator of metabolically active cells. The homogeneous assay procedure involves adding the single reagent (CellTiter-Glo® Reagent) directly to cells cultured in serum-supplemented medium. The homogeneous “add-mix-measure” format results in cell lysis and generation of a luminescent signal proportional to the amount of ATP present. The amount of ATP is directly proportional to the number of cells present in culture.
(§6) Cancer cells (3,000 cells/well) were harvested in a 96-well plate. Then, the cancer cells were treated with GS compounds and incubated for 24 hours. The MT Cell Viability Substrate, NanoLuc® Enzyme and cell culture medium was equilibrated to 37° C. The 2× RealTime-Glo™ reagent was prepared by diluting the MT Cell Viability Substrate and NanoLuc® Enzyme in 37° C. cell culture medium to a 2× concentration for each reagent. For example, 1 mL of 2× RealTime-Glo™ reagent was prepared by adding 2 μL of MT Cell Viability Substrate, 1,000×, and 2 μL of NanoLuc® Enzyme, 1,000×, to 996 μL of cell culture medium to form the 2× RealTime-Glo™ reagent. Then, an equal volume of 2× RealTime-Glo™ reagent was added to the cancer cells. The cells were kept for ˜20 minutes in the cell culture incubator and then luminescence was measured by using a plate-reading luminometer.
HCT-116 is a human colorectal cancer cell lines that has a mutation in RAS proto-oncogene.
as §4

Data set [3] concerns MKN-45 gastric cancer cells. Kind of data set: XTT cell growth assay, MKN-45. In kind it is cell-based, human. Conditions: Homo sapiens, MKN-45, 24 h, NS = not statistically significant, read-out: Effectiveness to suppress MKN-45 cell growth (cell growth inhibition).
From the text: as §1, §2, §3
MKN-45 is a human gastric adenocarcinoma, established from the poorly differentiated adenocarcinoma of the stomach (medullary type) of a person.
as §4

Data set [4] relates to HeLa cervical cancer cells. The data set is described as follows: XTT cell growth assay, HeLa. Type of data set: cell-based, human. Conditions: Homo sapiens, HeLa, 24 h, NS = not statistically significant, read-out: Effectiveness to suppress HeLa cell growth (cell growth inhibition).
From the text: as §1, §2, §3
HeLa is a human immortal cell line used in scientific research. It is the oldest and most commonly used human cell line. The line was derived from cervical cancer cells taken on Feb. 8, 1951 from Henrietta Lacks, a patient who died of cancer on Oct. 4, 1951.
as §4

The subject of data set [5] is MIA PaCa-2 pancreatic cancer cells. Kind of data set: Cell Glo luminescence cell growth assay, MIA PaCa-2. The conditions noted are these: Homo sapiens, MIA PaCa-2, 24 h, NS = not statistically significant, read-out: Effectiveness to suppress MIA PaCa-2 cell growth (cell growth inhibition). In kind it is cell-based, human.
From the text: as §5, §6
MIA PaCa-2 is a human pancreatic ductal adenocarcinoma cell line derived from the carcinoma of a person.
as §4

The test system of data set [6] is MDA-MB-231 triple negative breast cancer cells. Kind of data set: XTT cell growth assay, MDA-MB-231. In kind it is cell-based, human. Conditions: Homo sapiens, MDA-MB-231, 24 h, NS = not statistically significant, read-out: Effectiveness to suppress MDA-MB-231 cell growth (cell growth inhibition).
From the text: as §1, §2, §3
MDA-MB-231 is a human epithelial breast cancer cell line that was established from a pleural effusion of a person with a metastatic mammary adenocarcinomal and is one of the most commonly used breast cancer cell lines in medical research laboratories.
as §4

Data set [7] can be described thus: Deoxyribose degradation assay (hydroxyl radical scavenging). In kind it is biochemical. The conditions noted are these: NS = not statistically significant. As to the method: The hydroxyl radical (OH.) is an extremely reactive in biological systems and has been implicated as highly damaging species in free radical pathology, capable of damaging biomolecules of the living cells. These radical combines with nucleotides in DNA and cause strand breakage leading to carcinogenesis, mutagenesis and cytotoxicity. Hydroxyl radical (OH.) scavenging capacity of an extract is directly related to its antioxidant activity.
The effect of extracts on hydroxyl radicals was assayed by using the deoxyribose method. 2-Deoxyribose is degraded on exposure to hydroxyl radicals generated by Fenton's reaction. The ability to neutralize the OH. is estimated as the rate of inhibition of the oxidation of 2-deoxyribose by the OH. (FIG. 5).
The measurement of the hydroxyl radical scavenging activity was evaluated for each of the GS compound by evaluating the pink chromogen absorption at 532 nm by spectrophotometry as described previously (Perjesi, Pal et al., Open Med Chem J., 2011, 5: 61-67

The test system of another data set is pACLY (S455). The data set is described as follows: ELISA of pACLY (S455) / ACLY enzymatic activity in PANC-1 cells. Conditions: 5 μM. In kind it is cell-based, human. As to the method: ELISA assay was used to evaluate the effect of GS compounds on protein activity levels in PANC-1 cancer cells. PANC-1 cells were serum-starved overnight and then treated with rIGF1 (100 ng/mL) for 24 hours, with or without GS27 (5 μM). The levels of the following proteins were evaluated by ELISA assay: a) p70 S6 (T389) (cat no. 54164C, Cell Signaling); b) pAKT (S473), (cat no. 80895, Cell Signaling); c) pACLY (S455), (cat no. okag1672, Avivasysbio); d) pAMPK (T172) (cat no. 7959C, Cell Signaling) and e) p65/NFKB (S536), (cat no. 7173, Cell Signaling).
PANC-1 is a human pancreatic ductal adenocarcinoma cell line derived from the carcinoma of a person.
The molecular mechanism of action of GS27, a compound that has exerted potent anti-cancer activity in different cancer cell lines including pancreatic cancer cells, was investigated. Oleacein has been implicated to have anti-inflammatory and metabolic effects, thus the potential effects of GS27 in different metabolic and inflammatory pathways were evaluated. Specifically, the protein levels of p70 S6 (T389), pAKT (S473), pACLY (S455), pAMPK (T172) and p65/NFKB (S536) were evaluated by ELISA assay in PANC-1 pancreatic cancer cells treated with 5 μM GS27. GS27 reduced p70 S6 and AKT phosphorylation levels, while it increased AMPK phosphorylation.
The effects of different GS compounds on ACLY enzymatic activity were evaluated by ELISA assay in PANC-1 pancreatic cancer cells. […] This finding is unexpected, since GS21 has a very similar structure with GS27, with the only difference being the presence of an oxygen atom in ester GS21 instead of a sulfur atom in thioester GS27.
In general terms: An ELISA detects its analyte on a solid surface through an enzyme-linked reagent.

A further data set relates to HepG2 liver cancer cells. Kind of data set: XTT cell growth assay, HepG2. The conditions noted are these: Homo sapiens, HepG2, 24 h, NS = not statistically significant, read-out: Effectiveness to suppress HepG2 cell growth (cell growth inhibition). In kind it is cell-based, human.
From the text: as §1, §2, §3
Hep G2 (or HepG2) is a human liver cancer cell line. Hep G2 is an immortal cell line which was derived from the liver tissue of an adolescent with a well-differentiated hepatocellular carcinoma. Hep G2 cells are a suitable in vitro model system for the study of polarized human hepatocytes.
as §4

The structures appear in SMILES notation.

What is called inhibition is the drop in the measured response relative to a control, in per cent.

As for `C/C=C1/[C@H](OC2OC(CO)C(O)C(O)C2O)OC=C(C(=O)O)[C@H]1CC(=O)OCCOc1ccccc1` (stereo in doubt) [GS10, (2S,4S,E)-3-ethylidene-4-(2-oxo-2-(2-phenoxyethoxy)ethyl)-2-{[(2R,3S,4R,5R,6S)-3,4,5-trihydroxy-6-(hydroxymethyl)tetrahydro-2H-pyran-2-yl]oxy}-3,4-dihydro-2H-pyran-5-carboxylic acid], the inhibition at 50 µM in data set [1] was found to be 58.7%; in data set [3], 31.9%; in [4] it was 33.5%; in data set [5] it was 22%; in [6], 14%. Moreover, the “Effectiveness to suppress HCT-116 cell growth (cell growth inhibition)” value in [2] (1 uM, 24 h) is given as “suppressive activity”. The inhibition at 1 µM in data set [2] is 25.7%.
For the compound `C/C=C(/C=O)[C@@H](CC=O)CC(=O)OCCc1ccccc1` [GS21, (35,4E)-4-formyl-3-(2-oxoethyl)-4-hexenoic acid 2-phenylethyl ester], the inhibition at 50 µM was 66% in data set [1], 49.4% in data set [3], 75.8% in [4] and 52.5% in data set [6]. Besides, in data set [7], the “Deoxyribose Degradation Assay IC50” value was determined as 14.4 μg extract/mL. In addition, the “ACLY enzymatic activity (ELISA)” value in the data set on pACLY (S455) was “small effect”. Also, the inhibition at 1 µM in [2] was 21.5%.
Take `C/C=C(/C=O)[C@@H](CC=O)CC(=O)OCCC1CCCCC1` [GS22, 2-cyclohexylethyl (S,E)-4-formyl-3-(2-oxoethyl)hex-4-enoate]: the inhibition at 50 µM in the data set with HepG2 liver cancer cells came out at 66.8%; in data set [3], 35.8%; in data set [4], 48.6%; in data set [5], 28%; in data set [6], 48%. For the same compound, the “Deoxyribose Degradation Assay IC50” value in [7] stood at 16.8 μg extract/mL.
